Experimental data: publication PMC7961786, “Magic Peptide: Unique Properties of the LRR11 Peptide in the Activation of Leukotriene Synthesis in Human Neutrophils” (International Journal of Molecular Sciences, 2021)
“Also recorded” adds a separate entry of the source.

Legend:
human neutrophils [1] = test: Intracellular free Ca^2+ in neutrophils (Fluo-3); assay type: cell-based; settings: Figure 9
Procedure: Figure 9 Effects of ODNs and LRR11 on intracellular concentration of free Ca^2+ in neutrophils. Fluo-3 AM-loaded neutrophils (1 × 10^6/mL) were cultured in fibrinogen-coated flat bottom plates in HBSS/HEPES medium supplemented or not with 1 µM LRR11, without additives or in the presence of 1 µM ODNs, at 37 °C, 5% CO2. Fluo-3 fluorescence signals (ex. 485 nm, em. 538 nm) were monitored with 2-min intervals. (A) Values represent the means ± SEM of fluorescence intensity increments in 7 min after the addition of stimulus (n = 3). * p < 0.05, ** p < 0.01, **** p < 0.001 compared with the control, as indicated by two-way ANOVA followed by Sidak’s multiple comparison test. (B) Representative blank corrected Fluo-3 fluorescence kinetic curves for control (square, black solid line), LRR11 (circle, black dotted line), A-CpG (square, red solid line) and LRR11_A-CpG mix (circle, red dotted line).
Intracellular Ca^2+ ions were detected by staining with Fluo-3, which is known to dramatically increase fluorescence after binding of calcium ions, was used. According to the manufacturer’s protocol, human neutrophils were incubated with 5 μM Fluo-3 AM ester (Thermo Fisher Scientific, Waltham, MA, USA) for 60 min at room temperature, followed by washing in PBS. Cells were then seeded in fibrinogen-coated 96-well plates (1 × 10^6/mL of HBSS/HEPES) and incubated at 37 °C in 5% CO2. Changes in fluorescence intensity upon excitation at 485 nm and emission at 538 nm were monitored at CLARIOstar fluorescence microplate reader for at least 60 min after stimulus injection, followed by data analysis using MARS Data Analysis Software, version 3.30 (both hardware and software are from BMG Labtech, Ortenberg, Germany).

NeutrAvidin = test: TSM acoustic biosensor, unspecific binding to NeutrAvidin in the absence of ODNs
From the text: To characterize the interaction of the studied synthetic ODNs with the LRR11 peptide, we applied the thickness shear mode (TSM) acoustic biosensor method, which is based on the investigation of ultrasonic waves in piezoelectric materials such as AT-cut quartz. This approach involved immobilizing a 5′-biotinylated ODN on the surface of TSM transducer covered by NeutrAvidin and then adding the LRR11 peptide. An unrelated peptide (URP) with a random primary structure ([…]) was used as a negative control. The measurement procedure was divided into several steps, in which each immobilization stage was followed by washing with an appropriate buffer solution; when peptide solutions at different concentrations (from 1 to 100 nM) were added to the surface-modified TSM transducer, a wash with Hanks buffer was used before increasing the peptide concentration.
Eight MHz AT-cut piezoelectric quartz crystal transducer was obtained from CH Instruments, Austin, TX, USA. The transducer was covered on both sides with thin layers of gold that served as electrodes (working area 0.2 cm^2). Prior ODNs immobilization, the crystal was carefully cleaned with basic Piranha solution (29% NH3, 30% H2O and H2O2 with volumetric 1:5:1 ratio, respectively) for 25 min. After the thorough cleaning, the crystal was positioned between two silicon O-rings in a flow-through cell. […]

human neutrophils [2] = test: Reactive oxygen species formation (H2DCF-DA); assay type: cell-based; settings: n = 3, Figure 8
Procedure: Figure 8 When added simultaneously, LRR11 potentiates the prooxidant effects of oligonucleotides. H2DCF-DA-stained PMNLs (1 × 10^6/mL) were cultured for 1 h at 37 °C in 5% CO2 without additives or in the presence of 1 µM ODN, supplemented (shaded) or not (solid fill) with 1 µM LRR11. DCF green fluorescence signals (ex. 485 nm, em. 538 nm) were monitored every 5 min for an hour. Values represent the means ± SEM of DCF fluorescence intensity increments (RFU) in 30 min after stimulus addition (n = 3). * p < 0.05 for the pairs of data specified, as indicated by two-way ANOVA followed by Tukey’s multiple comparison test.
The level of intracellular production of reactive oxygen species was monitored by measuring the green fluorescence of H2DCF-DA-labeled oxidized product incorporated into cells according to the manufacturer’s protocol. Briefly, human neutrophils were incubated with 5 μM carboxy-H2DCF-DA (Molecular Probe, Eugene, OR, USA) for 60 min at room temperature, followed by rinsing with PBS. […] Fluorescent cell staining (excitation at 485 nm and emission at 538 nm) was recorded at CLARIOstar fluorescence microplate reader, using MARS Data Analysis Software, version 3.30 (both hardware and software are from BMG Labtech, Ortenberg, Germany).

## QLRKLNLSFNYQKRVSFAHLSLAPSFGSLV [LRR11, 30 amino acid peptide from leucine-rich repeat of TLR9]
Human neutrophils [1]; 1 µM LRR11 +/- 1 µM ODNs
  effect of LRR11 on calcium ion influx with/without ODNs: noticeable only in the absence of ODNs
Human neutrophils [1]; 1 µM LRR11 or 1 µM ODNs, Fluo-3, 37 °C, n = 3
  calcium influx: potentiates calcium influx
Human neutrophils [1]; 1 µM LRR11 or 1 µM ODNs
  time course of cytoplasmic Ca^2+ concentration: ensures long-term maintenance of an increased cytoplasmic Ca^2+ concentration
NeutrAvidin
  unspecific binding to NeutrAvidin: no unspecific biding
Human neutrophils [2]; 1 µM LRR11 + 1 µM ODN, 30 min
  effect of LRR11 on prooxidant potential of ODNs: Notably enhancing the prooxidant potential of the studied ODNs, in particular, CpG-containing ones; also recorded: only CpG-ODNs in combination with LRR11 enhanced responses
Human neutrophils [2]; 1 µM LRR11, 37 °C
  effect of LRR11 alone on synthesis of reactive oxygen species: does not affect the synthesis of reactive oxygen species
